≈ marks a conversion by molar mass, not a printed value.
Experiments:
Influenza B virus = experiment: In vitro antiviral activity was evaluated in a plaque reduction assay against influenza B; type: functional, organism-based
Influenza A virus = experiment: In vitro antiviral activity was evaluated in a plaque reduction assay against influenza A; type: functional, organism-based

What does the source list for `CCCN(C)C(=O)[C@@H]1OC(C(=O)O)=C[C@H](NC(=N)N)[C@H]1NC(C)=O`?
IC50 (Influenza B virus): 2.2 µg/mL (≈ 6.44 µM); IC50 (Influenza A virus): 11 ng/mL (≈ 0.0322 µM)

`CCCN(CCC)C(=O)[C@@H]1OC(C(=O)O)=C[C@H](NC(=N)N)[C@H]1NC(C)=O` was tested. Which IC50 (Influenza A virus) did it give?
Its IC50 is 0.1 ng/mL (≈ 0.000271 µM).

For `CCCN(C)C(=O)[C@@H]1OC(C(=O)O)=C[C@H](N)[C@H]1NC(C)=O`, which IC50 (Influenza B virus) is on record?
Its IC50 is 16 µg/mL (≈ 53.5 µM).

And the IC50 (Influenza A virus)?
Its IC50 is 320 ng/mL (≈ 1.07 µM).

How did the IC50 (Influenza B virus) turn out when `CCCNC(=O)[C@@H]1OC(C(=O)O)=C[C@H](N)[C@H]1NC(C)=O` was run?
The IC50 was 44 µg/mL (≈ 154 µM).

Which IC50 (Influenza B virus) does the source give for `CC(=O)N[C@H]1[C@H]([C@H](O)[C@H](O)CO)OC(C(=O)O)=C[C@@H]1N` here?
The IC50 was 0.02 µg/mL (≈ 0.0689 µM).

And the IC50 (Influenza A virus)?
The IC50 was 470 ng/mL (≈ 1.62 µM).

What does the source list for `CCCNC(=O)[C@@H]1OC(C(=O)O)=C[C@H](NC(=N)N)[C@H]1NC(C)=O`?
IC50 (Influenza B virus): 3.8 µg/mL (≈ 11.6 µM); IC50 (Influenza A virus): 280 ng/mL (≈ 0.855 µM)

Reference: ChEMBL document CHEMBL1159157, “Novel inhibitors of influenza sialidase related to GG167 Synthesis of 4-amino and guanidino-4H-pyran-2-carboxylic acid-6-propylamides; selective inhibitors of influenza a virus sialidase” (Bioorg Med Chem Lett, 1996)
